Measured values taken from patent publication US20040110963A1, “Novel hydrazones” (priority 2001, published 2004).
Values after ≈ are worked out from the molar mass of the structure shown.

Assays:
[1] = molecular target: enzyme I of the bacterial phosphotransferase system (PTS) (Escherichia coli, UniProt P08839); assay: Assay for Enzyme I dependent PEP: peptide phosphotransferase activity (LDH-coupled, NADH read-out at 340 nm); type: biochemical; details: enzyme I 0.75 μM, 0.8 mM PEP, pH 7.5; read-out: Inhibition of PTS (IC50 in μM)
From the text: The determination of activity of a compound of the present invention in the PTS may be summarized as follows:
Assay for Enzyme I Dependent PEP:
Peptide Phosphotransferase Activity. [formula]
To find inhibitors of Enzyme I of the PTS by high throughput screening, an in vitro assay based on spectrophotometric read out at 340 nm has been set up. The assay comprises of three major components, purified enzyme I in catalytic amounts, Phosphoenol Pyruvate (PEP) as the phosphoryl donor substrate and purified HPr as the phosphoryl acceptor substrate.
The assay couples the formation of pyruvate formed from PEP to lactate, catalyzed by lactate dehydrogenase. The disappearance of NADH, cofactor required by lactate dehydrogenase, is determined spectrophotometerically at 340 nm. The assay is done in a U-shaped microtiter plate format, and quantitation is done using microplate absorbance reader.
100 μl reaction mixture contained 0.8 mM PEP, 0.2 mM NADH, 3 μg lactate dehydrogenase (Boehringer Mannheim), 50 mM KPi pH=7.5, 2.5 mM dithiothreitol, 2.5 mM NaF, 5 mM MgCI2, and between 50 and 100 μM of the compound. The reaction is started by the addition of enzyme I (final concentration 0.75 μM). In a control experiment the compound is replaced by DMSO.

[2] = system: Staphylococcus aureus ATCC25923; assay: In vitro antibacterial activity (MIC, NCCLS M7-A5 dilution susceptibility test); type: cell-based; details: for MIC: read-out: Minimum Inhibitory Concentration (MIC) Staphylococcus aureus ATCC25923
Method: (§1) Antimicrobial susceptibility testing was performed in accordance with the National Committee for Clinical Laboratory Standards (NCCLS) procedure [M7-A5, 2001: Methods for Dilution Antimicrobial Susceptibility Tests for Bacteria That Grow Aerobically; Approved Standard-Fifth Edition American National Standard].

Escherichia coli DC2 = assay: as above; type: cell-based; details: for MIC: read-out: Minimum Inhibitory Concentration (MIC) Escherichia coli DC2
Method: as §1

## Cc1cccc(C(=O)NN=Cc2cc(Cl)ccc2O)c1 [Example 20, 3-Methyl-N′-(5-chloro-2-hydroxy-benzylidene)-benzohydrazide]
[1]
  IC50: 4 µM

## CC(=O)Nc1ccccc1C(C)=NNC(=O)c1ccccc1 [Example 23, N-[2-[1-(2-Benzoyl-hydrazono)-ethyl]-phenyl]-acetamide]
[1]
  IC50: 250 µM

## CN(N=Cc1ccc(O)c(O)c1O)C(=O)c1ccc(Cl)c(Cl)c1 [Example 53, 3,4-Dichloro-N-methyl-N′-(2,3,4-trihydroxy-benzylidene)-benzohydrazide]
[2]
  MIC: 128 µg/mL (≈ 360 µM)
Escherichia coli DC2
  MIC: > 128 µg/mL

## O=C(NN=Cc1cc(O)ccc1O)c1ccc(Cl)cc1 [Example 10, 4-Chloro-N′-(2,5-dihydroxy-benzylidene)-benzohydrazide]
[1]
  IC50: 8 µM
[2]
  MIC: 128 µg/mL (≈ 440 µM)
Escherichia coli DC2
  MIC: > 128 µg/mL

## COc1cccc(C(=O)NN=Cc2ccccc2O)c1 [Example 27, 3-Methoxy-N′-(2-hydroxy-benzylidene)-benzohydrazide]
[1]
  IC50: 7 µM

## COc1cccc(C(=O)NN=C(C)c2ccccc2O)c1 [Example 7, 3-Methoxy-N′-[1-(2-hydroxy-phenyl)-ethylidene]-benzohydrazide]
[1]
  IC50: 8 µM

## O=C(NN=Cc1ccc(O)c(O)c1O)c1cccc(C(F)(F)F)c1 [Example 51, 3-Trifluoromethyl-N′-(2,3,4-trihydroxy-benzylidene)-benzohydrazide]
[2]
  MIC: 8 µg/mL (≈ 23.5 µM)
Escherichia coli DC2
  MIC: 64 µg/mL (≈ 188 µM)

## CC(=NNC(=O)c1ccc(Cl)c(Cl)c1)c1ccc(O)c(O)c1O [Example 52, 3,4-Dichloro-N′-[1-(2,3,4-dihydroxy-phenyl)-ethylidene]-benzohydrazide]
[2]
  Minimum Inhibitory Concentration (MIC) Staphylococcus aureus ATCC25923: 4 micrograms/ml
Escherichia coli DC2
  Minimum Inhibitory Concentration (MIC) Escherichia coli DC2: 64 micrograms/ml

## O=C(NN=Cc1ccc(O)cc1O)c1cccc(C(F)(F)F)c1 [Example 6, 3-Trifluoromethyl-N′-(2,4-dihydroxy-benzylidene)-benzohydrazide]
[1]
  IC50: 10 µM
[2]
  MIC: > 128 µg/mL
Escherichia coli DC2
  MIC: 32 µg/mL (≈ 98.7 µM)

## O=C(NN=Cc1cc(O)ccc1O)c1cccc(Cl)c1 [Example 13, 3-Chloro-N′-(2,5-dihydroxy-benzylidene)-benzohydrazide]
[1]
  IC50: 0.7 µM

## Cc1ccc(O)c(C=NNC(=O)c2ccccc2)c1 [Example 17, N′-(2-Hydroxy-5-methyl-benzylidene)-benzohydrazide]
[1]
  IC50: 6 µM

## COc1cc(C(=O)NN=Cc2ccc(O)c(O)c2O)cc(OC)c1OC [Example 4, 3,4,5-Trimethoxy-N′-(2,3,4-trihydroxy-benzylidene)-benzohydrazide]
[1]
  IC50: 15 µM
[2]
  MIC: 128 µg/mL (≈ 353 µM)
Escherichia coli DC2
  MIC: 128 µg/mL (≈ 353 µM)

## O=C(NN=Cc1cc(O)ccc1O)c1cccc2ccccc12 [Example 3, N′-(2,5-Dihydroxy-benzylidene)-naphthalene-1-carbohydrazide]
[1]
  IC50: 6 µM

## COc1cccc(C(=O)NN=C(C)c2ccccc2N)c1 [Example 25, 3-Methoxy-N′-[1-(2-Amino-phenyl)-ethylidene]-benzohydrazide]
[1]
  IC50: 20 µM

## O=C(NN=Cc1ccccc1O)c1cccc(C(F)(F)F)c1 [Example 32, 3-Trifluoromethyl-N′-(2-hydroxy-benzylidene)-benzohydrazide]
[1]
  IC50: 7 µM

## CC(=NNC(=O)c1ccc(Cl)cc1)c1ccccc1N [Example 24, 4-Chloro-N′-[1-(2-amino-phenyl)-ethylidene]-benzohydrazide]
[1]
  IC50: 0.8 µM

## CC(=NNC(=O)c1ccccc1)c1cc(O)ccc1O [Example 15, N′-[1-(2,5-Dihydroxy-phenyl)-ethylidene]-benzohydrazide]
[1]
  IC50: 6 µM

## CNc1ccccc1C(=O)NN=Cc1cc(O)ccc1O [Example 19, 2-Methylamino-N′-(2,5-dihydroxy-benzylidene)-benzohydrazide]
[1]
  IC50: 2 µM

## CNc1ccccc1C(=O)NN=C(C)c1ccccc1O [Example 22, 2-methylamino-N′-[1-(2-hydroxy-phenyl)-ethylidene]-benzohydrazide]
[1]
  IC50: 2 µM

## O=C(NN=Cc1cc(O)ccc1O)c1ccc(O)cc1 [Example 11, 4-Hydroxy-N′-(2,5-dihydroxy-benzylidene)-benzohydrazide]
[1]
  IC50: 0.5 µM

## Cc1cccc(C(=O)NN=Cc2cc(O)ccc2O)c1 [Example 33, 3-Methyl-N′-(2,5-dihydroxy-benzylidene)-benzohydrazide]
[1]
  IC50: 2 µM

## O=C(NN=Cc1cc(O)c(O)cc1O)c1cccc(C(F)(F)F)c1 [Example 50, 3-Trifluoromethyl-N′-(2,4,5-trihydroxy-benzylidene)-benzohydrazide]
[2]
  MIC: 32 µg/mL (≈ 94 µM)
Escherichia coli DC2
  MIC: > 128 µg/mL

## O=C(NN=Cc1cc(O)ccc1O)c1ccccc1 [Example 1, N′-(2,5-Dihydroxy-benzylidene)-benzohydrazide]
[1]
  IC50: 15 µM
[2]
  MIC: 64 µg/mL (≈ 250 µM)
Escherichia coli DC2
  MIC: 128 µg/mL (≈ 499 µM)

## O=C(NN=Cc1cc(Cl)ccc1O)c1cccc(C(F)(F)F)c1 [Example 21, 3-Trifluoromethyl-N′-(5-chloro-2-hydroxy-benzylidene)-benzohydrazide]
[1]
  IC50: 12 µM
[2]
  MIC: 16 µg/mL (≈ 46.7 µM)
Escherichia coli DC2
  MIC: > 128 µg/mL

## O=C(NN=Cc1ccc(O)c(O)c1O)c1ccccc1 [Example 28, N′-(2,3,4-Trihydroxy-benzylidene)-benzohydrazide]
[1]
  IC50: 3 µM

## O=C(NN=Cc1cc(Cl)ccc1O)c1cccc(Cl)c1 [Example 38, 3-Chloro-N′-(2-hydroxy-5-chloro-benzylidene)-benzohydrazide]
[1]
  IC50: 75 µM

## O=C(NN=Cc1cc(O)ccc1O)c1ccc(Cl)c(Cl)c1 [Example 12, 3,4-Dichloro-N′-(2,5-dihydroxy-benzylidene)-benzohydrazide]
[1]
  IC50: 0.7 µM

## O=C(NN=Cc1ccc(O)cc1O)c1ccc(Cl)cc1 [Example 37, 4-Chloro-N′-(2,4-dihydroxy-benzylidene)-benzohydrazide]
[1]
  IC50: 20 µM

## COc1cc(C(=O)NN=Cc2cc(Cl)ccc2O)ccc1O [Example 14, 4-Hydroxy-3-methoxy-N′-(5-chloro-2-hydroxy-benzylidene)-benzohydrazide]
[1]
  IC50: 25 µM
[2]
  MIC: 128 µg/mL (≈ 399 µM)
Escherichia coli DC2
  MIC: 128 µg/mL (≈ 399 µM)

## O=C(NN=Cc1cccc(O)c1O)c1ccccc1 [Example 26, N′-(2,3-Dihydroxy-benzylidene)-benzohydrazide]
[1]
  IC50: 50 µM

## 4-chloro-N′-(2-hydroxy-3-chloro-benzylidene)-benzohydrazide [Example 36]
[1]
  IC50: 100 µM

## COc1cc(C(=O)NN=Cc2cc(O)ccc2O)ccc1O [Example 16, N′-(2,5-Dihydroxy-benzylidene)-4-hydroxy-3-methoxy-benzohydrazide]
[1]
  IC50: 4 µM

## O=C(NN=Cc1ccccc1O)c1ccc(Br)cc1 [Example 31, 4-Bromo-N′-(2-hydroxy-benzylidene)-benzohydrazide]
[1]
  IC50: 75 µM

## Nc1ccc(Cl)cc1C(=O)NN=Cc1ccccc1O [Example 5, 2-Amino-5-chloro-N′-(2-hydroxy-benzylidene)-benzohydrazide]
[1]
  IC50: 6 µM

## O=C(Cc1c[nH]c2ccccc12)NN=Cc1ccccc1O [Example 2, N′-(2-Hydroxy-benzylidene)-2-(1H-indol-3-yl)-acetohydrazide]
[1]
  IC50: 50 µM

## COc1cccc(C(=O)NN=Cc2cc(O)ccc2O)c1 [Example 8, 3-Methoxy-N′-(2,5-dihydroxy-benzylidene)-benzohydrazide]
[1]
  IC50: 15 µM

## O=C(NN=Cc1ccc(O)c(O)c1O)c1cccc(Cl)c1 [Example 49, 3-Chloro-N′-(2,3,4-trihydroxy-benzylidene)-benzohydrazide]
[2]
  MIC: 16 µg/mL (≈ 52.2 µM)
Escherichia coli DC2
  MIC: 64 µg/mL (≈ 209 µM)

## O=C(NN=Cc1cc(Cl)cc(Cl)c1O)c1ccccc1 [Example 48, N′-(2-Hydroxy-3,5-dichloro-benzylidene)-benzohydrazide]
[2]
  MIC: 128 µg/mL (≈ 414 µM)
Escherichia coli DC2
  MIC: > 128 µg/mL

## CC(=NNC(=O)c1ccc(O)cc1)c1cc(O)ccc1O [Example 35, 4-Hydroxy-N′-[1-(2,5-dihydroxy-phenyl)-ethylidene]-benzohydrazide]
[1]
  IC50: 1.75 µM

## O=C(NN=Cc1cc(O)c(O)cc1O)c1ccc(Cl)cc1 [Example 47, 4-Chloro-N′-(2,4,5-trihydroxy-benzylidene)-benzohydrazide]
[2]
  MIC: 8 µg/mL (≈ 26.1 µM)
Escherichia coli DC2
  MIC: 64 µg/mL (≈ 209 µM)

## O=C(NN=Cc1cc(O)ccc1O)c1cccc(C(F)(F)F)c1 [Example 34, 3-Trifluoromethyl-N′-(2,5-dihydroxy-benzylidene)-benzohydrazide]
[1]
  IC50: 15 µM

## O=C(NN=Cc1ccc(O)c(O)c1O)c1ccc(Cl)c(Cl)c1 [Example 9, 3,4-Dichloro-N′-(2,3,4-trihydroxy-benzylidene)-benzohydrazide]
[1]
  IC50: 75 µM
[2]
  MIC: 8 µg/mL (≈ 23.5 µM)
Escherichia coli DC2
  MIC: 32 µg/mL (≈ 93.8 µM)

## CNc1ccccc1C(=O)NN=Cc1cc(Cl)ccc1O [Example 18, 2-Methylamino-N′-(5-chloro-2-hydroxy-benzylidene)-benzohydrazide]
[1]
  IC50: 4 µM
